# Experimental data: ChEMBL document CHEMBL1909046, “DrugMatrix in vitro pharmacology data”
# Where a SMILES comes first, the peptide text is derived from it. Bridges are numbered along the chain shown (N, C = ends). [ ]: non-standard residue; d: D form. The star is where a group is joined. Ileψ(thiazoline)Cys = CC[C@H](C)[C@H](N)C1=N[C@H](C(=O)*)CS1; dOrn = NCCC[C@@H](N)C(=O)O
# What was measured:
# [1] = biological target: C-C chemokine receptor type 5 (Homo sapiens, UniProt P51681); format: cell membranes, Membrane; conditions: hek293; also: in other assays of this panel Not Active means under 50% inhibition at 10 µM
# Chain of C-C chemokine receptor type 5 (P51681 whole entry): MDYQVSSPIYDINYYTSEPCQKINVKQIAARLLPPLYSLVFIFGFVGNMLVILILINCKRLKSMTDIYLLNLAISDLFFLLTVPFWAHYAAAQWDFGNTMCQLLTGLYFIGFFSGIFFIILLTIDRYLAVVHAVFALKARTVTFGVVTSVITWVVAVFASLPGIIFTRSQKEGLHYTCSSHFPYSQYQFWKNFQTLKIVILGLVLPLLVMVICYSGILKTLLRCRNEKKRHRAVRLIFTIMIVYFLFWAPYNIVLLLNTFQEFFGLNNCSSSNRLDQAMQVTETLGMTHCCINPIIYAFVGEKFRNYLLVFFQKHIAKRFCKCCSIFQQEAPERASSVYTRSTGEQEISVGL
# Adenosine receptor A2a = Adenosine receptor A2a (Homo sapiens, UniProt P29274); assay: DRUGMATRIX: Adenosine A2A radioligand binding (ligand: […]); format: cell membranes, HEK293, Membrane; conditions: hek293; Not Active = under 50% inhibition at 10 µM
# Chain of Adenosine receptor A2a (P29274 whole entry): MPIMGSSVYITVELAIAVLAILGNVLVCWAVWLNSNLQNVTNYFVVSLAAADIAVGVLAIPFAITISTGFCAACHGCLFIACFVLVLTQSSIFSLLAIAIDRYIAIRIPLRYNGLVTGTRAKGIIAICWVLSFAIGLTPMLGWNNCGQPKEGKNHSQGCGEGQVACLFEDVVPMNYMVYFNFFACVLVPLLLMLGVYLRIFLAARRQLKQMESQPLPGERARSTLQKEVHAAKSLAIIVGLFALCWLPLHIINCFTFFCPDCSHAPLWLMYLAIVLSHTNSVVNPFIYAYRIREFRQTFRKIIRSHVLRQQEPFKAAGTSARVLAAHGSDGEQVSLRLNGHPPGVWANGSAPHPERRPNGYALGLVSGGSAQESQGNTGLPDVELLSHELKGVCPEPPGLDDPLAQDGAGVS
# [2] = biological target: T1, Muscarinic acetylcholine receptor M4 (Homo sapiens, UniProt P08173); format: cell membranes, CHO-K1, Membrane; conditions: cho-k1; also: in other assays of this panel Not Active means under 50% inhibition at 10 µM
# T1 sequence (P08173 whole entry): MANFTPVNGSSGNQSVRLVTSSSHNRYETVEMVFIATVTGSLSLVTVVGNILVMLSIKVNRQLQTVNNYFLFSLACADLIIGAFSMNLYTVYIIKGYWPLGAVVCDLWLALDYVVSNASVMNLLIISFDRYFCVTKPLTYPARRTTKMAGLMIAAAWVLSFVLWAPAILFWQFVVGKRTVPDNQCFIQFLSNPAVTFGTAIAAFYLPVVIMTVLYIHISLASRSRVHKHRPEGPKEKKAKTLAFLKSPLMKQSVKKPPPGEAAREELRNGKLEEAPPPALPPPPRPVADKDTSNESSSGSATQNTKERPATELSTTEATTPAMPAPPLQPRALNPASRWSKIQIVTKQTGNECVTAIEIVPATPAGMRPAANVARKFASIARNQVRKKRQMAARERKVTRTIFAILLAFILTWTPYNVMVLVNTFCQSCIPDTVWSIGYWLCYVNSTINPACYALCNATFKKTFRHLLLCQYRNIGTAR
# [3] = biological target: Sodium-dependent dopamine transporter (Homo sapiens, UniProt Q01959); assay: DRUGMATRIX: Dopamine Transporter radioligand binding (ligand: [125I] RTI-55); format: cell membranes, CHO-K1, Membrane; conditions: Not Active = under 50% inhibition at 10 µM
# Chain of Sodium-dependent dopamine transporter (Q01959 whole entry): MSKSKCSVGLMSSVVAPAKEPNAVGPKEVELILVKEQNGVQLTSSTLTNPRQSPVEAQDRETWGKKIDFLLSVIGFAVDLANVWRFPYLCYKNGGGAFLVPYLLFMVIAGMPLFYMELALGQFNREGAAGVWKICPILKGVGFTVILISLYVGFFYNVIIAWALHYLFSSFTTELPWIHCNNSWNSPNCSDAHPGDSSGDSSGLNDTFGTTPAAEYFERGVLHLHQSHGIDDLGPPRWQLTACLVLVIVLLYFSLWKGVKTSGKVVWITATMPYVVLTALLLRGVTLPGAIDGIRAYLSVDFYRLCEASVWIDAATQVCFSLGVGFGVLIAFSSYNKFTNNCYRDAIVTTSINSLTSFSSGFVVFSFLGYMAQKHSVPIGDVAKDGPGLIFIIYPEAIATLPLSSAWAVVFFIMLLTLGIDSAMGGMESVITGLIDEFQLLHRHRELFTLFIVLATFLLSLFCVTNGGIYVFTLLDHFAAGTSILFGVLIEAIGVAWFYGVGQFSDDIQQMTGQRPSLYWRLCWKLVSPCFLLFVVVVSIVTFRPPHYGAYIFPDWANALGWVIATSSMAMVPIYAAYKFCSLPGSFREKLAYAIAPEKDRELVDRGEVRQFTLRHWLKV
# [4] = DRUGMATRIX: Purinergic P2X radioligand binding (ligand: [3H] alpha, beta-Methylene-ATP); format: cell membranes, Oryctolagus cuniculus, New Zealand albino, Urinary bladder, Membrane; conditions: Not Active = under 50% inhibition at 10 µM
# D(3) dopamine receptor = D(3) dopamine receptor (Homo sapiens, UniProt P35462); assay: DRUGMATRIX: Dopamine D3 radioligand binding (ligand: [3H] Spiperone); format: cell membranes, CHO, Membrane; conditions: cho
# Chain of D(3) dopamine receptor (P35462 whole entry): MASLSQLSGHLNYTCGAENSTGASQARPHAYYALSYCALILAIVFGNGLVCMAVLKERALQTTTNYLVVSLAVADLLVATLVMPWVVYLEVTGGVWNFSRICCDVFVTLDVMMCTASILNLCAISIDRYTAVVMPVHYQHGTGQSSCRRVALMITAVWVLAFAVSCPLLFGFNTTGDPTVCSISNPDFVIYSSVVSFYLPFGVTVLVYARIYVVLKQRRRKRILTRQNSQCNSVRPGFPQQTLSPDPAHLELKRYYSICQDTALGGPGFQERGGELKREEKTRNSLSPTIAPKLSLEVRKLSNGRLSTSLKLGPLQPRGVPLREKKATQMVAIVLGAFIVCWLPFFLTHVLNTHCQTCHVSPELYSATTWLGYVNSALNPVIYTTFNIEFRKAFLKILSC
# [5] = DRUGMATRIX: Platelet-Derived Growth Factor (PDGF) radioligand binding (ligand: [125I] PDGF); format: cell-based; conditions: nih3t3; Not Active = under 50% inhibition at 10 µM
# Estrogen receptor beta = Estrogen receptor beta (Homo sapiens, UniProt Q92731); conditions: sf9; also: in other assays of this panel Not Active means under 50% inhibition at 10 µM
# Chain of Estrogen receptor beta (Q92731 whole entry): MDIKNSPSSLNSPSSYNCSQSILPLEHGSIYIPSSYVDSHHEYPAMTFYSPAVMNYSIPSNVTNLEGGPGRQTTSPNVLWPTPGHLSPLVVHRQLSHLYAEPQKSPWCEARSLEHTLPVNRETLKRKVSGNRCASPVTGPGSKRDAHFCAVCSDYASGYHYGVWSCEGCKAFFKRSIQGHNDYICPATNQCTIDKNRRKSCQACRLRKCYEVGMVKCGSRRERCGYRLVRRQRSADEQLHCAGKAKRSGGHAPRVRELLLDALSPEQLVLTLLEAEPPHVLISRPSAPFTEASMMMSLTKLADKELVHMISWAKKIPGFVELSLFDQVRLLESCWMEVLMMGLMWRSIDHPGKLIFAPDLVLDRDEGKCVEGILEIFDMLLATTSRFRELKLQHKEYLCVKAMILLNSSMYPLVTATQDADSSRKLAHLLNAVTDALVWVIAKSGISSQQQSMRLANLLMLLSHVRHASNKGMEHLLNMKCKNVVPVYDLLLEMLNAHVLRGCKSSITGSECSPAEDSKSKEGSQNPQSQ
# Cytochrome P450 2D6 = Cytochrome P450 2D6 (Homo sapiens, UniProt P10635); conditions: bti-tn-5b1-4; also: in other assays of this panel Not Active means under 50% inhibition at 10 µM
# Chain of Cytochrome P450 2D6 (P10635 whole entry): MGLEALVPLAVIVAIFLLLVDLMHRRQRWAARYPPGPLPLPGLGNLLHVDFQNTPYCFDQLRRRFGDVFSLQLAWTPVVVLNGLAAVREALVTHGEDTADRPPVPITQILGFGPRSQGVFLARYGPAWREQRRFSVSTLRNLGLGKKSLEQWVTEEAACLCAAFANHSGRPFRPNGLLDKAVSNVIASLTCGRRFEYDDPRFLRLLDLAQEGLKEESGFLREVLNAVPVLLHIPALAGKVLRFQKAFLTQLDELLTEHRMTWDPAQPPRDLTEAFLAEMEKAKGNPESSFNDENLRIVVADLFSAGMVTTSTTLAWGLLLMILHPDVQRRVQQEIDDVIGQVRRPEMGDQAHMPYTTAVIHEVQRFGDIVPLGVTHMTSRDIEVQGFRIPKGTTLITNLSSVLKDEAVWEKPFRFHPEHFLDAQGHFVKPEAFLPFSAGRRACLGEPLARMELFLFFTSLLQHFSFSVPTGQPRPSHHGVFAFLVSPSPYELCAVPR
# [6] = DRUGMATRIX: Glutamate, AMPA radioligand binding (ligand: [3H] AMPA); format: cell membranes, Rattus norvegicus, Wistar, Cerebral cortex, Membrane; conditions: Not Active = under 50% inhibition at 10 µM
# [7] = DRUGMATRIX: Sodium/nucleoside co-transporter radioligand binding (ligand: nitrobenzylthioinosine); format: cell membranes, Cavia porcellus, Dunkin-Hartley, Cerebral cortex, Membrane; conditions: Not Active = under 50% inhibition at 10 µM
# Melanocortin receptor 4 = Melanocortin receptor 4 (Homo sapiens, UniProt P32245); format: cell membranes, Membrane; conditions: hek293; also: in other assays of this panel Not Active means under 50% inhibition at 10 µM
# Chain of Melanocortin receptor 4 (P32245 whole entry): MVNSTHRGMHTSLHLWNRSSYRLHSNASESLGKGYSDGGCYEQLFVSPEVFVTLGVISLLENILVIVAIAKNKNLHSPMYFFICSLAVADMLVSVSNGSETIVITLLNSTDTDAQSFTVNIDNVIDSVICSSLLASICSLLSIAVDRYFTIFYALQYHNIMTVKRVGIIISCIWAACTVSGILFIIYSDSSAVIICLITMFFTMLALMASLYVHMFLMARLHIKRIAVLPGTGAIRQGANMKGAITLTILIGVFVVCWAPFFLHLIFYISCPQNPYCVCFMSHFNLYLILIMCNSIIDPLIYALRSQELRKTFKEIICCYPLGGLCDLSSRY
# Thromboxane-A synthase = biological target: T2, Thromboxane-A synthase (Homo sapiens, UniProt P24557); assay: biochemical; format: tissue-based, Platelet; conditions: platelet
# T2 sequence (P24557 whole entry): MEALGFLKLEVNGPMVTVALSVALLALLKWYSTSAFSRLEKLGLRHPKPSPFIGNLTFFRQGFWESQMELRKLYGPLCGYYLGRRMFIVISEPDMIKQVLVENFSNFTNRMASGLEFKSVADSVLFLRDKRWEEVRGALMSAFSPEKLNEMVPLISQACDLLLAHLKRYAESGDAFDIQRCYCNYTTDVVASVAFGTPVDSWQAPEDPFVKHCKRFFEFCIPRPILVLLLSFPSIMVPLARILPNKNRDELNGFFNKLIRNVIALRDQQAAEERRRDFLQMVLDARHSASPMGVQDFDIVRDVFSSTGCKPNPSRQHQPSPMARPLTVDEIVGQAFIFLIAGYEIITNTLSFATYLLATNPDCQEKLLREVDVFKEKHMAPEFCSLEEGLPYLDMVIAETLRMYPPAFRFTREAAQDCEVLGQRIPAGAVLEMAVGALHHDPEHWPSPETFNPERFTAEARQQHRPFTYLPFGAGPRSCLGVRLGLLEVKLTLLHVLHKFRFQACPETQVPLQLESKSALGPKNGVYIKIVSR
Compound,IC50 [1],IC50 (Adenosine receptor A2a),IC50 [2],IC50 ([3]; cho-k1),IC50 [4],Ki [4],IC50 (D(3) dopamine receptor),IC50 [5],Ki [5],IC50 (Estrogen receptor beta),IC50 (Cytochrome P450 2D6),Ki (Cytochrome P450 2D6),IC50 [6],Ki [6],IC50 [7],Ki [7],IC50 (Melanocortin receptor 4),IC50 (Thromboxane-A synthase),IC50 ([3]; read-out: IC50) [nM],Ki ([3]; read-out: Ki) [nM]
Cc1[nH]cnc1CN1CCc2c(c3ccccc3n2C)C1=O [ALOSETRON],Not Active,Not Active,Not Active,Not Active,Not Active,Not Active,Not Active,Not Active,Not Active,Not Active,Not Active,Not Active,Not Active,Not Active,Not Active,Not Active,Not Active,Not Active,–,–
CC(=O)[C@@]1(O)CC[C@H]2[C@@H]3C[C@H](C)C4=CC(=O)C=C[C@]4(C)[C@@]3(F)[C@@H](O)C[C@@]21C [FLUOROMETHOLONE],Not Active,Not Active,Not Active,Not Active,Not Active,Not Active,Not Active,Not Active,Not Active,Not Active,Not Active,Not Active,Not Active,Not Active,Not Active,Not Active,Not Active,Not Active,–,–
CC(=O)OCC(=O)[C@@]1(OC(C)=O)[C@@H](C)C[C@H]2[C@@H]3C[C@H](F)C4=CC(=O)C=C[C@]4(C)[C@@]3(F)[C@@H](O)C[C@@]21C [DIFLORASONE DIACETATE],Not Active,Not Active,Not Active,Not Active,Not Active,Not Active,Not Active,Not Active,Not Active,Not Active,Not Active,Not Active,Not Active,Not Active,Not Active,Not Active,Not Active,Not Active,–,–
CC1(C)S[C@@H]2[C@H](NC(=O)[C@H](N)c3ccc(O)cc3)C(=O)N2[C@H]1C(=O)O [AMOXICILLIN],Not Active,Not Active,Not Active,Not Active,Not Active,Not Active,Not Active,Not Active,Not Active,Not Active,Not Active,Not Active,Not Active,Not Active,Not Active,Not Active,Not Active,Not Active,–,–
C[C@]12CCC(=O)C=C1CC[C@@H]1[C@@H]2C(=O)C[C@@]2(C)[C@H]1CC[C@]2(O)C(=O)CO [CORTISONE],Not Active,Not Active,Not Active,Not Active,Not Active,Not Active,Not Active,Not Active,Not Active,Not Active,Not Active,Not Active,Not Active,Not Active,Not Active,Not Active,Not Active,Not Active,–,–
CC1(C)[C@@H](O[C@H]2O[C@H](C(=O)O)[C@@H](O)[C@H](O)[C@H]2O[C@@H]2O[C@H](C(=O)O)[C@@H](O)[C@H](O)[C@H]2O)CC[C@]2(C)[C@H]3C(=O)C=C4[C@@H]5C[C@@](C)(C(=O)O)CC[C@]5(C)CC[C@@]4(C)[C@]3(C)CC[C@@H]12 [GLYCYRRHIZIN],Not Active,Not Active,Not Active,Not Active,Not Active,Not Active,Not Active,Not Active,Not Active,Not Active,Not Active,Not Active,Not Active,Not Active,Not Active,Not Active,Not Active,Not Active,–,–
CCCCCCCCCc1ccc(O)cc1 [4-NONYLPHENOL],Not Active,Not Active,Not Active,–,Not Active,Not Active,Not Active,Not Active,Not Active,Not Active,Not Active,Not Active,Not Active,Not Active,Not Active,Not Active,Not Active,Not Active,1650,1310
CC[C@H](C)[C@H](N)C1=N[C@H](C(=O)N[C@@H](CC(C)C)C(=O)N[C@H](CCC(=O)O)C(=O)N[C@H](C(=O)N[C@H]2CCCCNC(=O)[C@H](CC(N)=O)NC(=O)[C@@H](CC(=O)O)NC(=O)[C@H](Cc3cnc[nH]3)NC(=O)[C@@H](Cc3ccccc3)NC(=O)[C@H]([C@@H](C)CC)NC(=O)[C@@H](CCCN)NC2=O)[C@@H](C)CC)CS1 [BACITRACIN] ({Ileψ(thiazoline)Cys}-L[dE]IK[dOrn]I[dF]H[dD]N; lactam 4-C),Not Active,Not Active,Not Active,Not Active,Not Active,Not Active,Not Active,Not Active,Not Active,Not Active,Not Active,Not Active,Not Active,Not Active,Not Active,Not Active,Not Active,Not Active,–,–
CC(/C=C1\SC(=S)N(CC(=O)O)C1=O)=C\c1ccccc1,Not Active,Not Active,Not Active,Not Active,Not Active,Not Active,Not Active,Not Active,Not Active,Not Active,Not Active,Not Active,Not Active,Not Active,Not Active,Not Active,Not Active,Not Active,–,–
